Data on 25 molecules can be found in the SangsterLogP compilation.

The data set can be described thus: method code SF-AS, from DOI: 10.1016/0048-3575(79)90081-6.

On to `O=C1CCC(=O)N1c1ccc([N+](=O)[O-])cc1`, for which the logP was 0.46. `CCc1ccccc1N1C(=O)CCC1=O`: the logP stood at 0.64. `COC(=O)c1cccc(N2C(=O)CCC2=O)c1` gave a log partition coefficient (logP) of 0.36.

In turn, `O=C1CCC(=O)N1c1cccc(Br)c1` had a logP of 1.09.

`O=C1CCC(=O)N1c1ccc(Cl)cc1`: the logP turned out to be 0.96. Same read-out and setting: next, `O=C1CCC(=O)N1c1ccccc1[N+](=O)[O-]`: 0.36; `O=C1CCC(=O)N1c1ccc(F)cc1`: 0.29; `O=C1CCC(=O)N1c1ccc(Br)cc1`: 1.18. Molecule `COc1ccccc1N1C(=O)CCC1=O` returned a logP of -0.02. Molecule `CCc1cccc(N2C(=O)CCC2=O)c1` had a logP of 1.04.

Regarding `O=C1CCC(=O)N1c1ccccc1`, the logP was 0.06. `O=C1CCC(=O)N1c1cccc(Cl)c1`: the logP turned out to be 0.98. Regarding `O=C1CCC(=O)N1c1cccc(I)c1`, the logD (pH 7.4) came out at 1.39. Take `Cc1ccccc1N1C(=O)CCC1=O`: the logP came to 0.29.

For the molecule `O=C1CCC(=O)N1c1ccccc1C(F)(F)F`, the logP is 0.76.

`N#Cc1cccc(N2C(=O)CCC2=O)c1` yielded a logP of 0.02. Same read-out and setting: then `O=C1CCC(=O)N1c1ccccc1F`, with 0.22; and `O=C1CCC(=O)N1c1cccc([N+](=O)[O-])c1`, with 0.38. The molecule `CCc1ccc(N2C(=O)CCC2=O)cc1` registered a logP of 1.1. The same measure, in the same setting: next, `O=C1CCC(=O)N1c1ccccc1Br`: 0.65; `O=C1CCC(=O)N1c1ccccc1I`: 0.8; `Cc1cccc(N2C(=O)CCC2=O)c1`: 0.57.

Consider `O=C1CCC(=O)N1c1cccc(F)c1`, for which the logP stood at 0.38. `Cc1ccc(N2C(=O)CCC2=O)cc1` gave a logP of 0.58.

As for `O=C1CCC(=O)N1c1ccccc1Cl`, the logP is 0.56.
